These results are taken from patent publication US8877717B2, “Anti-diabetic extract of rooibos” (Zadec ApS, priority 2007, dated 2014).

Experiment [1] is described as follows: Bioassay of purified fractions for anti-diabetic activity. The text has this:
The partially purified active extract may be dissolved in methanol, and may be further fractionated by column chromatography, employing silica gel as an adsorption medium and a chloroform/30% methanol mixture as an eluent. A plurality of different fractions may be obtained, and each may be evaluated, by suitable bioassaying procedures, to determine the anti-diabetic activity thereof.
A fraction having anti-diabetic activity may preferably be further fractionated such as by column chromatography using silica gel as an adsorption medium and a 9:1 chloroform:methanol solvent, and the resultant sub-fractions bioassayed for their anti-diabetic activity. A sub-fraction displaying anti-diabetic activity may, if desired, be further fractionated and purified, conveniently using a column chromatographic procedure with silica gel as the adsorption medium and a 9:1 ethylacetate:hexane solvent. The resultant purified fractions may again be evaluated by suitable bioassay procedures for their anti-diabetic activity.

For the next experiment, the system named is diabetic rats. The experiment in a line: Flavonoids administered to diabetic rats (blood sugar). The format is in vivo.

As for `O=C(CCc1ccc(O)c(O)c1)c1c(O)cc(O)c([C@@H]2O[C@H](CO)[C@@H](O)[C@H](O)[C@H]2O)c1O` [aspalathin, 3′-C-fl-D-glucopyranosyl-2′,3,4,4′,6′-pentahydroxydihydrochalcone], the “anti-diabetic activity of purified fraction” value in experiment [1] is reported as “good anti-diabetic activity”. The “lowering the blood sugar and alleviating diabetic symptoms” value with diabetic rats (T1D and T2D rats) is recorded as “effective”. The “effect in diabetic rats compared with the extract” value with diabetic rats (flavonoids extracted and fractionated from Aspalathus) is given as “results similar to those produced by the extract”.
